Assay results reported in ChEMBL document CHEMBL1201862, “PubChem BioAssay data set” (2004).
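Compound exposure: 48 hours, 5 concentrations, 96-well plates. At the GI50, growth is halved.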 Calls of active or inactive are those of the source. No stated cut-off is given here; in the data, active = GI50 up to about 1.1 µM and inactive = higher.

Assays:
Experiment in all cases: NCI-60 cell line screen, 48 h
[1] = test system: IGROV-1
[2] = test system: UACC-257
[3] = test system: UO-31
[4] = test system: MOLT-4
[5] = test system: RXF 393
[6] = test system: NCI-H522
[7] = test system: OVCAR-8
[8] = test system: HT-29
[9] = test system: Malme-3M
[10] = test system: HOP-62
[11] = test system: SK-MEL-2
[12] = test system: A498
[13] = test system: SN12C
[14] = test system: SNB-19
[15] = test system: SK-MEL-5
[16] = test system: CCRF-CEM
[17] = test system: ACHN
[18] = test system: LOX IMVI
[19] = test system: PC-3
[20] = test system: Hs-578T

Measured: GI50

COC(=O)c1[nH]c(=S)[nH]c(=O)c1-c1ccc(Cl)cc1
inactive: [1] > 50 µM | [2] > 50 µM | [3] > 50 µM | [4] > 50 µM | [5] > 50 µM | [6] > 50 µM | [7] > 50 µM | [8] > 50 µM | [9] > 50 µM | [10] > 50 µM | [11] > 50 µM | [12] > 50 µM | [13] > 50 µM | [14] > 50 µM | [15] > 50 µM | [16] > 50 µM | [17] > 50 µM | [18] > 50 µM

CCc1cccc(CC)c1NC(=O)C1=C(C)NC(C)=C(C(=O)Nc2c(CC)cccc2CC)C1c1ccc([N+](=O)[O-])cc1
inactive: [1] 14.4 µM | [2] 15.4 µM | [3] 23.2 µM | [4] 14.7 µM | [5] 17.1 µM | [6] 13.3 µM | [7] 20.4 µM | [8] 17.1 µM | [9] 17.3 µM | [10] 57.5 µM | [11] 20 µM | [12] 19 µM | [13] 46.5 µM | [14] 54.5 µM | [15] 15.1 µM | [16] 15.5 µM | [17] 27.4 µM | [18] 30.9 µM

COC(=O)/C=C(\C)C(=O)N(C)c1ccccc1I
inactive: [2] > 100 µM | [3] > 100 µM | [4] > 100 µM | [5] > 100 µM | [7] > 100 µM | [9] > 100 µM | [10] > 100 µM | [11] > 100 µM | [12] > 100 µM | [13] > 100 µM | [14] > 100 µM | [19] > 100 µM | [15] > 100 µM | [16] > 100 µM | [17] > 100 µM | [18] > 100 µM

O=c1c2ccccc2[nH]c2c(Cl)cc(Cl)c(N3CCCCC3)c12
inactive: [1] 18.6 µM | [2] 39.1 µM | [3] 20 µM | [4] 26.4 µM | [6] 22.1 µM | [7] 40 µM | [8] 16 µM | [10] 34 µM | [11] 21.7 µM | [12] 28.3 µM | [13] 22.1 µM | [14] 34.6 µM | [19] 35.5 µM | [15] 34.3 µM | [16] > 10 µM | [17] 23 µM | [18] 41.6 µM

COc1ccc(N2C(=O)/C(=C\c3cc(OC)c(OC)c(OC)c3)S(=O)(=O)C2c2ccccc2)cc1 (stereo not drawn)
inactive: [2] 52.7 µM | [3] 14.8 µM | [20] 58.3 µM | [4] 28.5 µM | [5] 15.7 µM | [6] 23.1 µM | [7] 25.2 µM | [9] 47.4 µM | [10] 48.8 µM | [11] 8.55 µM | [12] > 100 µM | [13] > 100 µM | [14] 18.5 µM | [15] 14.2 µM | [16] 39.2 µM | [17] 48.3 µM | [18] 20 µM

NC(=O)Nc1c(Cl)cc(S(N)(=O)=O)cc1Cl
inactive: [1] > 100 µM | [2] > 100 µM | [3] > 100 µM | [20] > 100 µM | [4] > 100 µM | [5] > 100 µM | [6] > 100 µM | [7] > 100 µM | [8] > 100 µM | [9] > 100 µM | [10] > 100 µM | [11] > 100 µM | [13] > 100 µM | [14] > 100 µM | [15] > 100 µM | [16] > 100 µM | [18] > 100 µM

O=S(=O)(Sc1ccc(Cl)cc1)c1ccc(Cl)cc1
inactive: [1] 16.8 µM | [2] 16.6 µM | [3] 11.2 µM | [4] 9.79 µM | [5] 15.7 µM | [6] 17.1 µM | [7] 16.1 µM | [8] 18.2 µM | [9] 17.5 µM | [10] 15.3 µM | [11] 3.84 µM | [12] 15.9 µM | [13] 12.4 µM | [14] 19.3 µM | [15] 15.2 µM | [16] 4.23 µM | [17] 16.1 µM | [18] 11.6 µM

CC(C)(C)OC(=O)C1CC[C@@H](CC(=O)Oc2ccc([N+](=O)[O-])cc2)N1 (stereo partly drawn)
inactive: [1] > 100 µM | [2] > 100 µM | [3] > 100 µM | [4] > 100 µM | [5] > 100 µM | [6] > 100 µM | [7] > 100 µM | [9] > 100 µM | [11] > 100 µM | [12] > 100 µM | [13] > 100 µM | [14] > 100 µM | [19] > 100 µM | [15] > 100 µM | [16] > 100 µM | [17] > 100 µM | [18] > 100 µM

O=c1c2cc(S(=O)(=O)Nc3ccc(Cl)cc3Cl)ccc2ncn1NS(=O)(=O)c1cccc2ccccc12
inactive: [1] 20.7 µM | [2] 77.6 µM | [3] 14.1 µM | [20] 21.5 µM | [4] 18.2 µM | [6] 24 µM | [7] 52.2 µM | [8] 32 µM | [9] > 100 µM | [10] 41.3 µM | [11] 38.1 µM | [13] 91.6 µM | [14] 21.6 µM | [19] 23.7 µM | [16] 12.7 µM | [17] 47.5 µM | [18] 15.5 µM

C[C@]12CCc3nonc3C1CC[C@@H]1C2CC[C@]2(C)C(=O)/C(=N\O)CC12 (stereo partly drawn)
inactive: [1] > 100 µM | [2] > 100 µM | [3] > 100 µM | [4] > 100 µM | [5] 3.87 µM | [6] 4.66 µM | [7] > 100 µM | [8] > 100 µM | [9] > 100 µM | [10] > 100 µM | [11] > 100 µM | [12] > 100 µM | [13] > 100 µM | [14] > 100 µM | [15] > 100 µM | [16] > 100 µM | [17] > 100 µM | [18] 46 µM

CCCCOC(=O)C1C2CCC(O2)C1C(=O)OCCCC (stereo not drawn)
inactive: [1] > 100 µM | [2] > 55.1 µM | [3] > 100 µM | [4] > 83.4 µM | [5] > 61.9 µM | [6] > 100 µM | [7] > 100 µM | [8] > 45.7 µM | [9] > 100 µM | [10] > 100 µM | [11] > 100 µM | [12] > 100 µM | [13] > 73.3 µM | [14] > 100 µM | [15] > 100 µM | [16] > 100 µM | [17] > 100 µM | [18] > 44.8 µM

Cc1c(NC(=S)NC(=O)c2ccc([N+](=O)[O-])cc2)c(=O)n(-c2ccccc2)n1C
inactive: [1] > 100 µM | [2] > 100 µM | [3] > 100 µM | [4] > 100 µM | [5] > 100 µM | [6] > 100 µM | [7] > 100 µM | [8] > 100 µM | [9] > 100 µM | [10] > 100 µM | [11] > 100 µM | [12] > 100 µM | [13] > 100 µM | [14] > 100 µM | [15] > 100 µM | [16] > 100 µM | [17] > 100 µM | [18] > 100 µM

N#CCSc1c(-c2ccccc2)c(=O)n(-c2ccccc2)c(=S)n1-c1ccccc1
inactive: [1] > 100 µM | [2] > 100 µM | [3] > 100 µM | [20] 51.5 µM | [4] > 100 µM | [6] > 100 µM | [7] > 100 µM | [8] > 100 µM | [9] > 100 µM | [10] > 100 µM | [11] > 100 µM | [13] > 100 µM | [14] > 100 µM | [19] > 100 µM | [15] 84.5 µM | [16] 96.8 µM | [17] > 100 µM | [18] > 100 µM

c1ccc2c(c1)CC1COc3ccccc3C1O2 (stereo not drawn)
inactive: [1] 86.1 µM | [2] 38.8 µM | [3] 51.1 µM | [4] 30.3 µM | [6] 57.4 µM | [7] > 100 µM | [8] 33.4 µM | [9] > 100 µM | [10] 56.6 µM | [11] 44.6 µM | [12] > 100 µM | [13] 67.5 µM | [19] 70.6 µM | [15] 17.4 µM | [16] 73.6 µM | [17] 75.9 µM | [18] 58.7 µM

CC(=O)NC(Cc1c[nH]cn1)C(=O)N1CCCC1C(N)=O (stereo not drawn)
inactive: [1] > 100 µM | [3] > 100 µM | [20] > 100 µM | [4] > 100 µM | [5] > 100 µM | [6] > 100 µM | [7] > 100 µM | [8] > 100 µM | [9] > 100 µM | [10] > 100 µM | [13] > 100 µM | [14] > 100 µM | [19] > 100 µM | [15] > 100 µM | [16] > 100 µM | [17] > 100 µM | [18] > 100 µM

N#CC(=S)Nc1ccc(Cl)c(Cl)c1
inactive: [1] 13.1 µM | [2] 28.2 µM | [4] 17.3 µM | [5] 25.4 µM | [7] 25.4 µM | [8] 21.1 µM | [9] 28.1 µM | [10] 44 µM | [11] 27.7 µM | [12] 32.7 µM | [13] 30.5 µM | [14] 43.8 µM | [19] 23.9 µM | [15] 22.2 µM | [16] 10 µM | [17] 33.3 µM | [18] 26.6 µM
